We go through eight molecules from US20090182039A1, “Choline Salt Crystal of Azulene Compound” (priority 2005, published 2009).

Data set [1] is described as follows: Crystal form stability (DSC analysis / X-ray powder diffraction). It counts as physicochemical. The conditions noted are these: behaviour on heating, drying or at room temperature. How it is done: X-ray powder diffraction and differential scanning calorimeter analysis (DSC analysis) were conducted under the following conditions. “MAC Science […]22” equipped with a copper X-ray tube was used under the conditions of a current of 40 mA, a tube voltage of […], a sampling width of 0.020°, a scanning rate of 3°/min, wavelength of 1.54056 Å, and measurement angles of diffraction range of (2θ): 3 or 5 to 40°. “TA Instrument TA 5000” was used at a temperature from room temperature to 300° C. (10° C./min) and a N2 feed rate of 50 ml/min using an aluminum sampling pan.

A further data set is described as follows: Storage stability test. It is filed as physicochemical. The protocol:
(2-hydroxyethyl)trimethylammonium-4-(azulene-2-ylmethyl)-2-β-D-glucopyranosylphenolate (46 g) was put into a polyethylene bag, and the opening of the bag was closed with a bead band. The bag was put into another polyethylene bag containing silica gel (12 g). The opening of the bag was closed with a bead band. The bag was placed in a metal can, which was tightly sealed and stored in a dark place at 40° C. and 75% RH for six months. Apart from this, (2-hydroxyethyl)trimethylammonium-4-(azulene-2-ylmethyl)-2-β-D-glucopyranosylphenolate (10 g) was put into an open brown container and stored in a dark place at 40° C. and 75% RH for six months.

Data set [2] deals with T1, Human Na+-glucose cotransporter (human SGLT2) (Homo sapiens, UniProt P31639).
T1 construct: expressed in transfected cells; host or cells: CHO-K1
T1 sequence (P31639 1-672): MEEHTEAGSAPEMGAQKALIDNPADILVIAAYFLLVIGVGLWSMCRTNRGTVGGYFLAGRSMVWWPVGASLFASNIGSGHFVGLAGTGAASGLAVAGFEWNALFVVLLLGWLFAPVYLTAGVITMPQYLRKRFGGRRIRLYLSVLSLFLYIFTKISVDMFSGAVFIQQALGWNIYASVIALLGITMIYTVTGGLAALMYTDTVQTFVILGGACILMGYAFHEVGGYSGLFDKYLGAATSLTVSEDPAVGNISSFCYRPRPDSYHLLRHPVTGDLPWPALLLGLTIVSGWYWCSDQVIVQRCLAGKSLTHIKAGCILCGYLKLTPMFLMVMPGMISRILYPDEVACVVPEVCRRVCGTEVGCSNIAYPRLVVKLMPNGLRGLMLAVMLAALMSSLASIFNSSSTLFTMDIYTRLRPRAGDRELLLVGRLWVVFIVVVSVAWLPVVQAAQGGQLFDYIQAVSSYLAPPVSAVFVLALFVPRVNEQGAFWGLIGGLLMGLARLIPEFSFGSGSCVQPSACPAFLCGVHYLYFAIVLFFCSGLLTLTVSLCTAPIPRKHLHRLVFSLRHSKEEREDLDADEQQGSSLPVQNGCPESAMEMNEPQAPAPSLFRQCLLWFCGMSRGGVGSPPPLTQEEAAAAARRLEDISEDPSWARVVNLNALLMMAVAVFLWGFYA
Briefly: Inhibition of methyl-α-D-glucopyranoside intake in CHO cells stably expressing human SGLT2. It counts as cell-based. The note with it: stated as equivalent to the value of Example 75 of Patent Document 1. From the text: [Test for Confirming Effect of Inhibiting Activity of Human Na^+-Glucose Cotransporter (Human SGLT2)]
First, single-stranded cDNA was reversely transcripted from total RNA originating from human kidney (manufactured by BD Biosciences Clontech) using a Superscript II (manufactured by Invitrogen Corporation) and a random hexamer. Second, using the cDNA as a template, a DNA fragment encoding human SGLT2 (Wells R. G. et al., Am. J. Physiol., 1992, 263 (3) F459) was amplified by a PCR reaction using Pyrobest DNA polymerase (manufactured by Takara Bio Inc.) (A primer where a Hind III site and an EcoRI site were inserted into the 5′ side and the 3′ side of the DNA fragment, respectively, was used).
The amplified fragment was cloned into a pCR2.1-Topo vector using a Topo TA Cloning Kit (manufactured by Invitrogen Corporation), and the cloned vector was transfected into a competent cell of Escherichia coli JM109. Ampicillin-resistant clones were cultured in a LB medium containing ampicillin (100 mg/l). A plasmid was purified from the cultured Escherichia coli using the method of Hanahan (see Maniatis et al., “Molecular Cloning”). […]

Where [3] appears, read: 40° C., 75% RH, silica gel/polyethylene bags (double) in a metal can, dark place, 2 months.
Where [4] appears, read: 40° C., 75% RH, silica gel/polyethylene bags (double) in a metal can, dark place, 4 months.
Where [5] appears, read: 40° C., 75% RH, silica gel/polyethylene bags (double) in a metal can, dark place, 6 months.
The mark [6] stands for this setting: at the start of storing, 0 month.
The mark [7] stands for this setting: 40° C., 75% RH, brown glass container, open, dark place, 2 months.
[8] abbreviates: 40° C., 75% RH, brown glass container, open, dark place, 4 months.
Setting [9] is: 40° C., 75% RH, brown glass container, open, dark place, 6 months.

Regarding `[Na+].[O-]c1ccc(Cc2cc3cccccc-3c2)cc1[C@@H]1O[C@H](CO)[C@@H](O)[C@H](O)[C@H]1O` [Comparative Example 1, sodium 4-(azulen-2-ylmethyl)-2-β-D-glucopyranosylphenolate], the “Stability of the crystal form” value in data set [1] is “change form due to dissociation of volatile components at a low temperature”.

Turning to `[K+].[O-]c1ccc(Cc2cc3cccccc-3c2)cc1[C@@H]1O[C@H](CO)[C@@H](O)[C@H](O)[C@H]1O` [Comparative Example 2, potassium 4-(azulen-2-ylmethyl)-2-β-D-glucopyranosylphenolate], the “Stability of the crystal form” value in data set [1] is on record as “change form due to dissociation of volatile components at a low temperature”.

As to `[Li+].[O-]c1ccc(Cc2cc3cccccc-3c2)cc1[C@@H]1O[C@H](CO)[C@@H](O)[C@H](O)[C@H]1O` [Comparative Example 3, lithium 4-(azulen-2-ylmethyl)-2-β-D-glucopyranosylphenolate], in data set [1], the “Stability of the crystal form” value is “change form due to dissociation of volatile components at a low temperature”.

Regarding `OC[C@H]1O[C@@H](c2cc(Cc3cc4cccccc-4c3)ccc2O)[C@H](O)[C@@H](O)[C@@H]1O` [Comparative Example 5, (1S)-1,5-anhydro-1-[5-(azulen-2-ylmethyl)-2-hydroxyphenyl]-D-glucitol hydrate crystal-1], the “Stability of the crystal form” value in data set [1] was “transformed into anhydride crystal-3 of azulene compound A”.

Regarding `OC[C@H]1O[C@@H](c2cc(Cc3cc4cccccc-4c3)ccc2O)[C@H](O)[C@@H](O)[C@@H]1O` [Comparative Example 7, (1S)-1,5-anhydro-1-[5-(azulen-2-ylmethyl)-2-hydroxyphenyl]-D-glucitol anhydride crystal-1], the “Stability of the crystal form” value in data set [1] was “stable only at high temperature and cannot be isolated at room temperature”.

Turning to `OC[C@H]1O[C@@H](c2cc(Cc3cc4cccccc-4c3)ccc2O)[C@H](O)[C@@H](O)[C@@H]1O` [Comparative Example 8, (1S)-1,5-anhydro-1-[5-(azulen-2-ylmethyl)-2-hydroxyphenyl]-D-glucitol anhydride crystal-2], the “Stability of the crystal form” value in data set [1] was “stable only at a high temperature and could not be isolated at room temperature”.

For the molecule `OC[C@H]1O[C@@H](c2cc(Cc3cc4cccccc-4c3)ccc2O)[C@H](O)[C@@H](O)[C@@H]1O` [Example 1, (2-hydroxyethyl)trimethylammonium 4-(azulen-2-ylmethyl)-2-β-D-glucopyranosylphenolate], in the data set “Storage stability test” (setting [3]), the “Analogous compounds (%) (HPCL) Maximum of each compound” value (shortened to “Analogous compounds (%) (HPCL) Maximum”) is 0.26%, the “Analogous compounds (%) (HPCL) Total amount” value is given as 0.66%, the “Quantitative analysis (%) (HPCL)” value worked out at 99.5% and the “Water content (%)” value is recorded as 0.29%. Besides, in the data set “Storage stability test” (setting [4]), the “Analogous compounds (%) (HPCL) Maximum” value came out at 0.26%, the “Analogous compounds (%) (HPCL) Total amount” value came out at 0.62%, the “Quantitative analysis (%) (HPCL)” value is 99.0% and the “Water content (%)” value worked out at 0.22%. In “Storage stability test” (setting [5]), the “Analogous compounds (%) (HPCL) Maximum” value is 0.27%, the “Analogous compounds (%) (HPCL) Total amount” value was determined as 0.44%, the “Quantitative analysis (%) (HPCL)” value turned out to be 99.5% and the “Water content (%)” value is listed as 0.19%. The “Storage stability (conclusion from Table 3)” value in the data set “Storage stability test” (40° C., 75% RH, six months) is reported as “stable compounds”. In addition, in “Storage stability test” (setting [6]), the “Analogous compounds (%) (HPCL) Maximum” value was 0.26%, the “Analogous compounds (%) (HPCL) Total amount” value turned out to be 0.61%, the “Quantitative analysis (%) (HPCL)” value is given as 99.0% and the “Water content (%)” value worked out at 0.39%. Besides, the IC50 in data set [2] is approximately 8.9 nM.

For the molecule `OC[C@H]1O[C@@H](c2cc(Cc3cc4cccccc-4c3)ccc2O)[C@H](O)[C@@H](O)[C@@H]1O` [Example 2, (2-hydroxyethyl)trimethylammonium 4-(azulen-2-ylmethyl)-2-β-D-glucopyranosylphenolate hydrate], in “Storage stability test” (setting [7]), the “Analogous compounds (%) (HPCL) Maximum” value is recorded as 0.25%, the “Analogous compounds (%) (HPCL) Total amount” value is 0.58%, the “Quantitative analysis (%) (HPCL)” value is 99.2% and the “Water content (%)” value turned out to be 3.78%. Further, in “Storage stability test” (setting [8]), the “Analogous compounds (%) (HPCL) Maximum” value is on record as 0.24%, the “Analogous compounds (%) (HPCL) Total amount” value came out at 0.57%, the “Quantitative analysis (%) (HPCL)” value is listed as 99.9% and the “Water content (%)” value is reported as 3.59%. For the same molecule, in the data set “Storage stability test” (setting [9]), the “Analogous compounds (%) (HPCL) Maximum” value is given as 0.24%, the “Analogous compounds (%) (HPCL) Total amount” value is 0.43%, the “Quantitative analysis (%) (HPCL)” value was 98.8% and the “Water content (%)” value is 3.61%.
